US6818619B2, “Chimeric natriuretic peptides” (Mayo Foundation for Medical Education and Research, priority 1999, dated 2004)
Values joined by “and” are separate entries in the source; they are usually repeats but may differ in a detail not shown here. Identical values can stand only once.

System: normal rats
Assay: Cardiorenal actions of bolus ANP, CNP, VNP in anesthetized normal rats
Type: in vivo, rat
[1] = normal rats, Recovery (after 30 minute washout)

CC[C@H](C)[C@@H]1NC(=O)[C@H](CCCNC(=N)N)NC(=O)[C@H](CC(=O)O)NC(=O)[C@H](CCSC)NC(=O)[C@H](CCCNC(=N)N)NC(=O)CNC(=O)CNC(=O)[C@H](Cc2ccccc2)NC(=O)[C@@H](NC(=O)[C@H](CO)NC(=O)[C@H](CO)NC(=O)[C@H](CCCNC(=N)N)NC(=O)[C@H](CCCNC(=N)N)NC(=O)[C@H](CC(C)C)NC(=O)[C@@H](N)CO)CSSC[C@@H](C(=O)N[C@@H](CC(N)=O)C(=O)N[C@@H](CO)C(=O)N[C@@H](Cc2ccccc2)C(=O)N[C@@H](CCCNC(=N)N)C(=O)N[C@@H](Cc2ccc(O)cc2)C(=O)O)NC(=O)CNC(=O)[C@H](CC(C)C)NC(=O)CNC(=O)[C@H](CO)NC(=O)[C@H](CCC(N)=O)NC(=O)[C@H](C)NC(=O)CNC1=O [ANP, Atrial natriuretic peptide]
HR heart rate (normal rats, 5 μg/kg bolus): 353 ± 14 beats/minute
MAP mean arterial pressure (normal rats, 5 μg/kg bolus): 97 ± 12 mmHg
RAP right atrial pressure (normal rats, 5 μg/kg bolus): −2.3 ± 0.8 mmHg
UKV urine potassium excretion (normal rats, 5 μg/kg bolus): 10.3 ± 3.5 µmol/min
UNaV urine sodium excretion (normal rats, 5 μg/kg bolus): 13.2 ± 3.5 µmol/min
UV urine volume (normal rats, 5 μg/kg bolus): 79 ± 10 µL/min
UcGMPV urine cGMP volume (normal rats, 5 μg/kg bolus): 605 ± 151 pmol/min
HR heart rate (normal rats, 50 μg/kg bolus): 355 ± 19 beats/minute
MAP mean arterial pressure (normal rats, 50 μg/kg bolus): 69 ± 7*+ mmHg
RAP right atrial pressure (normal rats, 50 μg/kg bolus): −3.8 ± 0.8*+ mmHg
UKV urine potassium excretion (normal rats, 50 μg/kg bolus): 24.4 ± 8.7 µmol/min
UNaV urine sodium excretion (normal rats, 50 μg/kg bolus): 68.2 ± 15.7*+ μmol/minute
UV urine volume (normal rats, 50 μg/kg bolus): 341 ± 41*+ μl/minute
UcGMPV urine cGMP volume (normal rats, 50 μg/kg bolus): 2580 ± 505*+ pmol/minute
HR heart rate [1]: 368 ± 23 beats/minute
MAP mean arterial pressure [1]: 92 ± 11*¶ mmHg
PcGMP plasma cGMP [1]: 3.2 − 63¶ pmol/ml
RAP right atrial pressure [1]: −0.8 ± 0.9¶ mmHg
UKV urine potassium excretion [1]: 2.4 ± 0.1 µmol/min
UNaV urine sodium excretion [1]: 8.9 ± 3.5¶ μmol/minute
UV urine volume [1]: 48 ± 14¶ μl/minute
UcGMPV urine cGMP volume [1]: 105 ± 63¶ pmol/minute

C-type natriuretic peptide (GLSKGCFGLKLDRIGSMSGLGC) [CNP]
HR heart rate (rat, in vivo): 363 ± 19 beats/minute and 365 ± 19 beats/minute and 363 ± 16 beats/minute
MAP mean arterial pressure (rat, in vivo): 100 ± 12 mmHg and 87 ± 9*+ mmHg and 104 ± 11*¶ mmHg

vasonatrin peptide [VNP]
HR heart rate (rat, in vivo): 393 ± 20 beats/minute and 408 ± 25 beats/minute and 390 ± 20 beats/minute
MAP mean arterial pressure (rat, in vivo): 93 ± 15 mmHg and 79 ± 15*+ mmHg and 93 ± 15*¶ mmHg
